# Measurements: patent US20260364072A1, “METHODS FOR PROMOTING EXPANSION OF HUMAN CD34+ CELLS IN VIVO AND FOR PROMOTING NEURAL REGENERATION” (THE REGENTS OF THE UNIVERSITY OF CALIFORNIA, priority 2023, published 2026)
# How the values were obtained:
# [1] = Rat single-dose toxicokinetic study; format: in vivo, Sprague Dawley rats; settings: IV bolus; for Tmax / half-life: plasma
# Description: Pre-IND PD and toxicokinetic (TK) studies (FIG. 4D) were enabled by scalable Rebecsinib synthesis^34 and development of an optimized formulation for in vivo biodistribution (5% w/v EtOH, 5% w/v Kolliphor HS15 in 0.9% Sodium Chloride). In PK studies, Rebecsinib was detectable in rat, rabbit, and non-human primate (NHP) plasma following IV bolus administration. In rat TK studies, Rebecsinib was quantifiable up to 1-hour post-dose at 1 mg/kg and up to 4 hours post-dose at 3, 5, and 8 mg/kg (FIG. 4E). […] Rebecsinib T1/2 values were 0.342, 0.447, 0.313, and 0.530 hours at 1, 3, 5, and 8 mg/kg, respectively. […] Following 3, 10, and 20 mg/kg boluses, Rebecsinib was quantifiable in plasma 1 hour post-dose and could be detected up to 8 hours post-dosing with 40 mg/kg (FIG. 4F). […] Following 3, 10, 15, and 20 mg/kg of Rebecsinib, quantifiable plasma concentrations of Rebecsinib were observed through 8 hrs post-dose (FIG. 4G).
# (FIG. 29D) Schematic diagram outlining multispecies toxicokinetic (TK) and pharmacodynamic studies in mammalian species treated in vivo with a single dose of Rebecsinib. Toxicokinetic analyses were performed in rats (n=6 per sex, per group), rabbits (n=2 per sex, per group), and non-human primates (NHPs, n=1 per sex, per group) and pharmacodynamic splice isoform quantification studies were performed in peripheral blood mononuclear cells (PBMCs) from NHP.
# (FIG. 29E, FIG. 29F) For toxicokinetic analyses, rats (FIG. 29E) and rabbits (FIG. 29F) were given a single injection of Rebecsinib at 1-40 mg/kg, or vehicle control, and blood samples were drawn at regular intervals to determine plasma concentrations of the compound over 8 hr after treatment.
# Single-dose TK studies were performed in Sprague Dawley rats (Charles River Labs, South San Francisco, CA), New Zealand white rabbits (BASi/Inotiv, West Lafayette, IN), and cynomolgus monkeys (BASi/Inotiv). Rat and rabbit studies included toxicology analyses, quantification of plasma levels of Rebecsinib, and necropsies to evaluate organ integrity after treatment. For NHP studies, health and ophthalmological evaluations were performed before and after dosing with Rebecsinib, and blood samples were collected for quantification of plasma levels of Rebecsinib and biomarker studies in PBMCs from treated and control animals. All monkeys were returned to the animal colony after the end of the observation period. Toxicokinetic values including mean plasma concentrations and t1/2 values were calculated according to CRO-approved protocols (Charles River and BASi).
# [2] = test system: RNA editing; experiment: Whole transcriptome RNA editing analysis of CD34+ cells from sAML50261 engrafted mice; format: in vivo, human cells in mice; settings: mice treated with 5 or 10 mg/kg
# Description: FIG. 30E illustrates a whole transcriptome-based RNA editing analyses of previously-described RNA-seq data^14 generated from CD34^+ cells isolated from the spleens of sAML50261 engrafted mice treated with Rebecsinib or vehicle;
# For RNA editing analyses of whole transcriptome sequencing data, previous datasets were utilized from CD34^+ cells isolated from the spleens of sAML50261-engrafted mice treated once weekly with Rebecsinib in a dose-response assay (5 or 10 mg/kg),^14 along with CD34^+ cells harvested from mice that were serially transplanted with CD34+ cells from sAML50261-engrafted mice that had been treated twice weekly with Rebecsinib at 10 mg/kg (no further treatment was delivered to serial transplant recipients). Due to limiting number of cells remaining after treatment, cells were pooled from n=4 to 5 mice per condition for sequencing. RNA editing analysis was performed as previously described.^5
# [3] = test system: splicing reporter in KG-1a AML cells; experiment: Lentiviral dual fluorescence (RFP/GFP) splicing reporter in KG-1a cells; format: cell-based, human; settings: 24 hr
# Text: (FIG. 29A) Quantification of cell viability (left panel) and splicing modulation (RFP/GFP ratios, right panel) by flow cytometry analyses of the human AML cell line (KG-1a) stably transduced with a lentiviral dual-fluorescence splicing reporter vector and treated with increasing concentrations of Rebecsinib.
# For generation of stably transduced splicing reporter cell lines, a previously described splicing reporter construct^31 was cloned into a lentiviral vector backbone.^52 KG-1a cells were transduced with the dual-fluorescent lentiviral splicing reporter vector, treated with various concentrations of Rebecsinib (3-fold serial dilutions from 3 μM to 4 nM) for 24 hr, washed followed by DAPI staining, and analyzed by flow cytometry for cell viability and RFP/GFP fluorescence intensity. Results were from duplicate wells of each condition. Viability of cells treated with DMSO (0.5% final concentration) was set as 100%. Nonlinear regression curve fit analysis was carried out using Prism software (GraphPad) to determine ECso values for viability and mean fluorescence intensity (MFI) of RFP and GFP.
# [4] = test system: MCL1 transcripts; experiment: MCL1-S/L ratio by splice isoform-specific qRT-PCR in primary CD34+ MF HPC and LSC; format: cell-based, human; settings: 0.1 μM, compared with vehicle, short-term culture, no stroma
# [5] = test system: MF HPC; experiment: Viability of high-risk MF CD34+ cells by flow cytometry; format: cell-based, human; settings: 72 hr, compared with vehicle controls
# Description: (FIG. 28B) Flow cytometry-based viable cell counts (5,000 events measured) in high-risk MF samples after in vitro treatment of primary CD34^+ cells with vehicle control (DMSO) or Rebecsinib (72 hr).
# Human HS5 and HS27a^45 or mouse bone marrow cells lines SL (hSCF and hIL3) and M2 (hIL3 and hG-CSF) were irradiated and then mixed at a ratio of 1:1 and incubated overnight for attachment. CD34^+ were selected from high-risk MF and sAML primary samples using magnetic beads (Miltenyi Biotec, Germany). As a control, CD34^+ cells from aged normal bone marrow (aNBM), young normal BM (yNBM) and cord blood (All Cells Inc, Alameda, CA) mononuclear cells were utilized. To establish co-cultures, 10,000-15,000 CD34^+ cells were added to SLM2 stroma in 1 ml of MYELOCULT H5100™ (STEMCELL Technologies, Vancouver, Canada). Rebecsinib or DMSO control were added at the initiation of co-culture at indicated concentrations. After one week, cells that were both attached to stroma and floating were collected, resuspended in fresh media and plated in methylcellulose (MC) H4330™ (STEMCELL Technologies) in triplicate. After 2 weeks primary colonies (more than 40 cells) were counted and individual multilineage colonies were plucked, cells resuspended and re-plated again in fresh MC. Secondary colonies were counted after another 14 days. […]
smiles,measurement,setting,value
CC[C@H](OC)[C@@H](C)[C@H]1O[C@@H]1[C@@H](O)[C@H](C)/C=C/C=C(\C)[C@H]1OC(=O)C[C@H](O)CC[C@@](C)(O)[C@@H](OC(C)=O)/C=C/[C@@H]1C [Rebecsinib],last time quantifiable in plasma,[1]; 1 mg/kg,up to 1 hour
same,last time quantifiable in plasma,[1]; 3 mg/kg,up to 4 hours
same,last time quantifiable in plasma,[1]; 5 mg/kg,up to 4 hours
same,last time quantifiable in plasma,[1]; 8 mg/kg,up to 4 hours
same,Tmax,[1]; 1 mg/kg,≤ 4.98 min
same,half-life,[1]; 1 mg/kg,20.5 min
same,Tmax,[1]; 3 mg/kg,≤ 10 min
same,half-life,[1]; 3 mg/kg,26.8 min
same,Tmax,[1]; 5 mg/kg,≤ 4.98 min
same,half-life,[1]; 5 mg/kg,18.8 min
same,Tmax,[1]; 8 mg/kg,≤ 10 min
same,half-life,[1]; 8 mg/kg,31.8 min
same,RNA editing activity,[2],global downregulation of RNA editing activity that occurred in a dose-responsive manner
same,RFP to GFP reporter expression,[3],increased RFP to GFP reporter expression in a dose-dependent manner
same,MCL1-S/L transcript ratio,[4],elevated expression of pro-apoptotic MCL1-short (S) compared with anti-apoptotic MCL1-long (L) transcripts
same,MF HPC viability,[5],decreased MF HPC viability
